Laboratory results taken from patent publication US9598414B2, “Substituted benzo[5,6]azepino[3,2,1-hi]pyrido[4,3-b]indoles and substituted benzo[6,7][1,4]oxazepino[2,3,4-hi]pyrido[4,3-b]indoles for treating CNS disorders” (Daya Drug Discoveries, Inc., priority 2013, dated 2017).

Columns and labels:
[1] = biological target: T1, Serotonin 5-HT1A (Homo sapiens, UniProt P08908); experiment: Receptor binding, 5-HT1A
T1 sequence (P08908 1-422): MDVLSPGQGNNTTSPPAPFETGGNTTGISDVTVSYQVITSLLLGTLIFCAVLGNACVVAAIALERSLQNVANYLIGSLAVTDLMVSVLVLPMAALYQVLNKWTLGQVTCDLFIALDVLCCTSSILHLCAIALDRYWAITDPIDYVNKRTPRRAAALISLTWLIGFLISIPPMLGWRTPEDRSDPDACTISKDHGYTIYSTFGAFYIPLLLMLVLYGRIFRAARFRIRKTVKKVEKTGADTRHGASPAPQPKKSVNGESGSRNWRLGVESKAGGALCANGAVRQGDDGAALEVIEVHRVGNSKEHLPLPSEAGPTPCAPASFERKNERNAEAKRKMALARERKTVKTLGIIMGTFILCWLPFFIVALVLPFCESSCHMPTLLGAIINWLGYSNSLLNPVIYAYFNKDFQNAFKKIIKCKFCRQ

[2] = biological target: Serotonin 5-HT1D (Homo sapiens, UniProt P28221); experiment: Receptor binding, 5-HT1D
Sequence of Serotonin 5-HT1D (P28221 whole entry): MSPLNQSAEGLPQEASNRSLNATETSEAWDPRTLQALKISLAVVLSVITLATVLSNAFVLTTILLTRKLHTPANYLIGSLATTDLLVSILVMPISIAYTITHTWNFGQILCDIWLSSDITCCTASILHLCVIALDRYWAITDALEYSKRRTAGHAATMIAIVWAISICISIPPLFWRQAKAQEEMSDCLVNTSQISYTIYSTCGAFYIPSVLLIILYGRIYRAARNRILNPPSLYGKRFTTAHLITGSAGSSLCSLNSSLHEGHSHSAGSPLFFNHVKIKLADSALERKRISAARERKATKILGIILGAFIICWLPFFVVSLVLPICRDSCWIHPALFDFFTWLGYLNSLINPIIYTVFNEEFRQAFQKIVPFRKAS

[3] = biological target: Serotonin 5-HT2A (Homo sapiens, UniProt P28223); experiment: Receptor binding, 5-HT2A
Sequence of Serotonin 5-HT2A (P28223 whole entry): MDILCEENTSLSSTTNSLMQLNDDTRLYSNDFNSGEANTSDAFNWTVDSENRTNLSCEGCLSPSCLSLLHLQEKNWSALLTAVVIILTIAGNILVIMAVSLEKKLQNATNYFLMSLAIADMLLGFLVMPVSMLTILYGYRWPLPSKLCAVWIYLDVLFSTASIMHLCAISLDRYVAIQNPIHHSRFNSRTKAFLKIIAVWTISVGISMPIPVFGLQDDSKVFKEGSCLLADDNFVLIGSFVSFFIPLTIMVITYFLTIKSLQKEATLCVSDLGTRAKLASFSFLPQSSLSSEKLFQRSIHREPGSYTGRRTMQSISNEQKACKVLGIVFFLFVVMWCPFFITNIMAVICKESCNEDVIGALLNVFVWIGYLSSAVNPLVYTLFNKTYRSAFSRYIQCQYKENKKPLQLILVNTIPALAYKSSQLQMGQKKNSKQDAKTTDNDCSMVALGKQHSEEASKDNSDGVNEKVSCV

[4] = biological target: Serotonin 5-HT2B (Homo sapiens, UniProt P41595); experiment: Receptor binding, 5-HT2B
[5] = biological target: Serotonin 5-HT5A (Homo sapiens, UniProt P47898); experiment: Receptor binding, 5-HT5A
Sequence of Serotonin 5-HT5A (P47898 whole entry): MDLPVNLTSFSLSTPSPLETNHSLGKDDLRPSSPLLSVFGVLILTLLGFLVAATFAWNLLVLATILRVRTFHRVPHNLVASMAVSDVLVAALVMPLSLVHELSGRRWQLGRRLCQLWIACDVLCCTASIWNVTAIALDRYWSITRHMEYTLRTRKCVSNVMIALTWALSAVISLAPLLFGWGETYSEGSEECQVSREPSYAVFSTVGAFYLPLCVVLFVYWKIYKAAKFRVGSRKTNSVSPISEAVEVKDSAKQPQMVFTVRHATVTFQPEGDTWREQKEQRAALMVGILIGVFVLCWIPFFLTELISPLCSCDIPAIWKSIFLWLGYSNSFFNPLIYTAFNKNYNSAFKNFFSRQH

[6] = biological target: Serotonin 5-HT6 (Homo sapiens, UniProt P50406); experiment: Receptor binding, 5-HT6
Sequence of Serotonin 5-HT6 (P50406 whole entry): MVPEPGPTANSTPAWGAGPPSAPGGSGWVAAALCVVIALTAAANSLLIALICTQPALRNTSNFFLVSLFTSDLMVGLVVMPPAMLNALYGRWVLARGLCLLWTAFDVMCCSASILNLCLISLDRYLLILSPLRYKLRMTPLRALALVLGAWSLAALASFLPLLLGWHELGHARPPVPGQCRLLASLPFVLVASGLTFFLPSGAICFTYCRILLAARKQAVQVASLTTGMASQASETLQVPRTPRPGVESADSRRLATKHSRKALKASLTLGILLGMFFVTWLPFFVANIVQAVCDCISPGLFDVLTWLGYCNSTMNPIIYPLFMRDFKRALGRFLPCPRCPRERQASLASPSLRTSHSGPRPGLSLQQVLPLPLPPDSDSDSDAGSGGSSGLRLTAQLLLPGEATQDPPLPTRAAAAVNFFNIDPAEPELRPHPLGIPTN

[7] = biological target: Serotonin 5-HT7 (Homo sapiens, UniProt P34969); experiment: Receptor binding, 5-HT7
Sequence of Serotonin 5-HT7 (P34969 whole entry): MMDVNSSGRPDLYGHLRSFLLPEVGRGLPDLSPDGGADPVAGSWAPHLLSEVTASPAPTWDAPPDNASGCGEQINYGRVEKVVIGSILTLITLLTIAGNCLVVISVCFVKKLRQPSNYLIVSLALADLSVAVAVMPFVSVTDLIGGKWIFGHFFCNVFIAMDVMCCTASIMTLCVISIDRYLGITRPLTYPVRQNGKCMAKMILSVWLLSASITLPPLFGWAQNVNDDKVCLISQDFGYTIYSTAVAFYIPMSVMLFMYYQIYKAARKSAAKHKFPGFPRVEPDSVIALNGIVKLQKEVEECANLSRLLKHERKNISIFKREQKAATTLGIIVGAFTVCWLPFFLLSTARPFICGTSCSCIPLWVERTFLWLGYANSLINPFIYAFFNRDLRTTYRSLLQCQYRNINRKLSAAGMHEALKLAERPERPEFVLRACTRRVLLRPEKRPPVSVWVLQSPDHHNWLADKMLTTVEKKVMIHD

[8] = biological target: Dopamine D1 (Homo sapiens, UniProt P21728); experiment: Receptor binding, D1
Sequence of Dopamine D1 (P21728 whole entry): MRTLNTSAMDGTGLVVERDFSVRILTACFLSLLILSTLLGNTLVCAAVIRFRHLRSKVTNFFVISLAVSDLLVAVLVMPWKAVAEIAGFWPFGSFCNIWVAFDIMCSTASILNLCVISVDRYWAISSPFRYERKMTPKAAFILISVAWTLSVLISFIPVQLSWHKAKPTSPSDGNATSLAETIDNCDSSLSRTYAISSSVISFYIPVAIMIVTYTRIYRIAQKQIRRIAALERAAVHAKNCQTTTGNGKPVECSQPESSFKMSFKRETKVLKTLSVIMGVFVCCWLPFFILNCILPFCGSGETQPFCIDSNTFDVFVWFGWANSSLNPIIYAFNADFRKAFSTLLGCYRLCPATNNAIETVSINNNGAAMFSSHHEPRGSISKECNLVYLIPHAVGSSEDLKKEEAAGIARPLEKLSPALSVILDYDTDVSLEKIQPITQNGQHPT

[9] = biological target: Dopamine D2 (Homo sapiens, UniProt P14416); experiment: Receptor binding, D2
[10] = biological target: Dopamine D3 (Homo sapiens, UniProt P35462); experiment: Receptor binding, D3
[11] = biological target: Dopamine D4 (Homo sapiens, UniProt P21917); experiment: Receptor binding, D4
[12] = biological target: Dopamine D5 (Homo sapiens, UniProt P21918); experiment: Receptor binding, D5
Sequence of Dopamine D5 (P21918 whole entry): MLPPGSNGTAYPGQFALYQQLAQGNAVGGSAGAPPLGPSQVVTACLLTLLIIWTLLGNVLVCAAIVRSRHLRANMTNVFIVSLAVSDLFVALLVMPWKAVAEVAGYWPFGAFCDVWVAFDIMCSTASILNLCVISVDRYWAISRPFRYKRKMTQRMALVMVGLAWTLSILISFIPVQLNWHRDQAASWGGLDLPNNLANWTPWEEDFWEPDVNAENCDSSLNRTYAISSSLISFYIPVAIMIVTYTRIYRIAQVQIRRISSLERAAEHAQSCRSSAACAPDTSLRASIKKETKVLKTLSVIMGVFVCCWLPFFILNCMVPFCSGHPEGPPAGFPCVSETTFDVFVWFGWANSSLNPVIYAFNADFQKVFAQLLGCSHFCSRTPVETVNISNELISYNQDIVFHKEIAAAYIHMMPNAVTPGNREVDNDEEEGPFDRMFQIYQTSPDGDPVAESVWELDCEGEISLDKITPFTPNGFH

[13] = biological target: α-Adrenergic α1A (Homo sapiens, UniProt P35348); experiment: Receptor binding, α1A
Sequence of α-Adrenergic α1A (P35348 whole entry): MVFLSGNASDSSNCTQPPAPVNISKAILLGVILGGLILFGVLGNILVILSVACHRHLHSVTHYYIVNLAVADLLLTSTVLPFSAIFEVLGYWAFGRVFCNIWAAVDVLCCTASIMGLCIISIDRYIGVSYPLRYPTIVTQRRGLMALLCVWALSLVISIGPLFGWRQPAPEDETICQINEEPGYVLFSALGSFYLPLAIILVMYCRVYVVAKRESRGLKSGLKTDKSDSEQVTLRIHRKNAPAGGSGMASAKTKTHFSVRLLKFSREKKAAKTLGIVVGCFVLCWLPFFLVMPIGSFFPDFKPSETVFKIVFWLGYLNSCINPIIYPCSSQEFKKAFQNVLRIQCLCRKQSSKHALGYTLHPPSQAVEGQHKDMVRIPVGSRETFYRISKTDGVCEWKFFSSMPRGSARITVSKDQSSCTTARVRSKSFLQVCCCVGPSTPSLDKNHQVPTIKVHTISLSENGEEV

[14] = biological target: α-Adrenergic α1D (Homo sapiens, UniProt P25100); experiment: Receptor binding, α1D
[15] = biological target: T2, α-Adrenergic α2C (Homo sapiens, UniProt P18825); experiment: Receptor binding, α2C
T2 sequence (P18825 1-462): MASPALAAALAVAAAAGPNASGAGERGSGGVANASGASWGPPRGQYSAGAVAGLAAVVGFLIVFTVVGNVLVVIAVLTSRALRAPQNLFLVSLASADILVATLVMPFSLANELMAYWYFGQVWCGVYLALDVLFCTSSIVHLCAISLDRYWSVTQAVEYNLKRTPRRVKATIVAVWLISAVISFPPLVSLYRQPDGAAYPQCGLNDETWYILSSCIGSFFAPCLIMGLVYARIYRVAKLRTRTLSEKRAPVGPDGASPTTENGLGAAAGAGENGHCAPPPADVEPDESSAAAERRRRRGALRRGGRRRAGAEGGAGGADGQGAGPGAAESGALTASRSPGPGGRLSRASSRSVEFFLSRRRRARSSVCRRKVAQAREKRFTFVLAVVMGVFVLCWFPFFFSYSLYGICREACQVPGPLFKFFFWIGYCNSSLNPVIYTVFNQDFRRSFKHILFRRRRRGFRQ

[16] = biological target: β-Adrenergic β1 (Homo sapiens, UniProt P08588); experiment: Receptor binding, β1
[17] = biological target: β-Adrenergic β2 (Homo sapiens, UniProt P07550); experiment: Receptor binding, β2
[18] = biological target: β-Adrenergic β3 (Homo sapiens, UniProt P13945); experiment: Receptor binding, β3
[19] = biological target: Histamine H1 (Homo sapiens, UniProt P35367); experiment: Receptor binding, H1; settings: H1
[20] = biological target: Histamine H2 (Homo sapiens, UniProt P25021); experiment: Receptor binding, H2
[21] = biological target: Histamine H3 (Homo sapiens, UniProt Q9Y5N1); experiment: Receptor binding, H3
[22] = biological target: Sigma σ1 (Homo sapiens, UniProt Q99720); experiment: Receptor binding, σ1
Sequence of Sigma σ1 (Q99720 whole entry): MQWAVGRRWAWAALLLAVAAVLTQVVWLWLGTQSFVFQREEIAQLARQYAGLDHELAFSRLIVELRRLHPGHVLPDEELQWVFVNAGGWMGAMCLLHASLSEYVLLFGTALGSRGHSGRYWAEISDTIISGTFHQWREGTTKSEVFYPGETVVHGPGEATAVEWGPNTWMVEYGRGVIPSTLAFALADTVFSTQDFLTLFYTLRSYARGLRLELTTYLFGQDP

[23] = biological target: Opioid δ (Homo sapiens, UniProt P41143); experiment: Receptor binding, opioid δ
Sequence of Opioid δ (P41143 whole entry): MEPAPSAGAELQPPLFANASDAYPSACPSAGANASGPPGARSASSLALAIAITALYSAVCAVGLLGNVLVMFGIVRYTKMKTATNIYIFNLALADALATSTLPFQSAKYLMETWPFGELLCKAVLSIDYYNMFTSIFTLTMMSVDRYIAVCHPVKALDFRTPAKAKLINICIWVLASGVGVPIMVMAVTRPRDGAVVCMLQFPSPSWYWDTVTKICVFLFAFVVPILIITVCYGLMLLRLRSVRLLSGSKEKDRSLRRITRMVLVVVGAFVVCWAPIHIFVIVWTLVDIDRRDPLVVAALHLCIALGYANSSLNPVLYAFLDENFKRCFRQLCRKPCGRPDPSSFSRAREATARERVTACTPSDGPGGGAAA

[24] = biological target: Muscarinic M2 (Homo sapiens, UniProt P08172); experiment: Receptor binding, M2
[25] = biological target: Muscarinic M4 (Homo sapiens, UniProt P08173); experiment: Receptor binding, M4
[26] = biological target: Serotonin transporter (Homo sapiens, UniProt P31645); experiment: Receptor binding, serotonin transporter
Sequence of Serotonin transporter (P31645 whole entry): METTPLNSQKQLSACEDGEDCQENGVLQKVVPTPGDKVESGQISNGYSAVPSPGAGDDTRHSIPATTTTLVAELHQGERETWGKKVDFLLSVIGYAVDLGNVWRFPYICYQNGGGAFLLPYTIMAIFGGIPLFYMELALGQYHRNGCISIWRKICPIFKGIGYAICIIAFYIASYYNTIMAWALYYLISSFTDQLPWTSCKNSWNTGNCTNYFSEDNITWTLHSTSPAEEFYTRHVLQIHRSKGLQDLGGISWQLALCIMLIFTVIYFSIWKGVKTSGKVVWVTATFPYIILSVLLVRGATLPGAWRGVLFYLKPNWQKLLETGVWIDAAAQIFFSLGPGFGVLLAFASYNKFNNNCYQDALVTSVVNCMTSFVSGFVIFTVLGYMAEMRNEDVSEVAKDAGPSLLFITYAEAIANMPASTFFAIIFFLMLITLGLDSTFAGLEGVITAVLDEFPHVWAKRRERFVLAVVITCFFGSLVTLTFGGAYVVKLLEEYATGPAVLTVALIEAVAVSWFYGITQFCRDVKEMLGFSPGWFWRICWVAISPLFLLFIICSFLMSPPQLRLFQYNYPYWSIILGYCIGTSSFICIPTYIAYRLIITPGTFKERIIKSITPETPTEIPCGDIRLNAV

[27] = tested on: mice (129SV/PAS background); experiment: MDMA-induced motor behavior (locomotor activity); type: in vivo; settings: FIG. 4
Procedure: In this in vivo study, locomotor activity was measured in a circular corridor with four infrared beams placed at every 90° (Imetronic, France). Counts were incremented by consecutive interruption of two adjacent beams (i.e. mice moving through one-quarter of the corridor). DDD-024 was tested in MDMA-induced motor behavior at 5, 10 and 20 mg/kg, ip, in mice (129SV/PAS background, 8 week old, Charles River Laboratories). The animals were injected with vehicle and individually placed in the activity box for 30 min during 3 days consecutively for habituation before experiments. Mice received vehicle or DDD-024 (5-20 mg/kg, i.p.) injection 30 min before MDMA injection (10 mg/kg).

CN1CCc2c(c3cccc4c3n2Cc2ccccc2O4)C1 [Compound 13b]
Ki [1]: 32 nM | binding, in words ([1]; summary of Table 1): binds strongly | Ki [2]: 385 nM | binding, in words ([2]; summary of Table 1): moderate binding | Ki [3]: 927 nM | Ki [4]: 195 nM | Ki [5]: 1910 nM | Ki ([6]; 5-HT6): 189 nM | binding, in words ([6]; 5-HT6, text summary of Table 1): moderate binding | Ki ([7]; 5-HT7): 258 nM | binding, in words ([7]; 5-HT7, text summary of Table 1): moderate binding | Ki [8]: > 10000 nM | Ki [9]: > 10000 nM | Ki [10]: > 10000 nM | Ki [11]: > 10000 nM | Ki [12]: > 10000 nM | Ki [13]: 5860 nM | Ki [14]: 5030 nM | Ki [15]: 507 nM | Ki [16]: > 10000 nM | Ki [17]: > 10000 nM | Ki [18]: > 10000 nM | Ki [19]: 733 nM | Ki [20]: 4730 nM | Ki [21]: > 10000 nM | Ki [22]: 220 nM | Ki [23]: 310 nM | Ki [24]: > 10000 nM | Ki [25]: > 10000 nM | Ki [26]: 413 nM | increase in motor activity elicited by MDMA ([27]; 10 mg/kg i.p. 30 min before MDMA 10 mg/kg): partially | increase in motor activity elicited by MDMA ([27]; 20 mg/kg i.p. 30 min before MDMA 10 mg/kg): completely blocked
